Laboratory results published in patent US11278525B1, “Further molecules, compositions and methods for modulation of SIRT6” (SirTLab Corporation, priority 2017, dated 2022).

molecular target: SIRT6 (Homo sapiens, UniProt Q8N6T7); test: SIRT6 enzymatic activity assay with fluorophore (AMC)-labeled Lysin-myristoylated histone H3 peptide (de-myristoylation, trypsin release); type: biochemical; set-up: six-histidine tag; made in house; host or cells: Escherichia coli BL21; details: amount tested 20 uM; Example 5, Table 9
Description: Human recombinant SIRT6 (sequence identifier: CAG33481.1; GI:4814651) was expressed in large scale in Escherichia coli strain BL21 as a six-histidine-tagged protein, after transformation of the expression plasmid pET28-SIRT6. The SIRT6 enzyme was purified from the bacteria culture broth in a two-step strategy. The first purification step was carried out by cation exchange chromatography on a HiTrap CM-Sepharose column (GE Healthcare) using an FPLC system. The second purification step was performed by immobilized metal ion affinity chromatography (IMAC) using a cobalt affinity column (Clontech).
The enzymatic activity assay is carried out in 96 or 384-well microplates using the purified recombinant SIRT6 and a fluorophore-labeled peptide substrate: 7-amino-4-methylcoumarin (AMC) that is quenched through conjugation to the C-terminal end of a Lysin-myristoylated histone H3 peptide. The activity assay procedure requires two steps, both performed in the same microplate. In the first step, the substrate is incubated with the purified SIRT6 protein along with the co-substrate nicotinamide adenine dinucleotide (NAD+). Upon de-myristoylation, the liberated ε-amino group of the lysine becomes a trypsin substrate. Treatment with trypsin in the second step releases the fluorophore resulting in an increase in fluorescence. Fluorescence intensity is measured using a fluorescent plate reader (excitation and emission at 370 nm and 450 nm, respectively). The fluorescence signal is directly proportional to SIRT6 enzymatic activity.
In the primary screening, compounds from a library (ChemDiv Inc.) were tested at a single concentration of 20 micromolar for their potential to modulate SIRT6 enzymatic activity. The assay was carried out in 384-well black well plates and all liquid handling was done using a robotic liquid handler. Purified recombinant SIRT6 (1 micromolar) was pre-incubated with each compound (or DMSO in control wells) for 15 minutes at room temperature. The first stage of the assay was initiated by adding a ‘substrate solution’ containing the myristoylated histone H3 peptide and NAD+(for final concentrations of 25 micromolar and 20 micromolar, respectively). After one hour incubation at 37° C., a Trypsin solution (6 mg/mL) was added for 30 minutes at room temperature. Fluorescence intensity was measured using a fluorescent plate reader (Tecan) with excitation at 370 nm and emission at 450 nm. The effect of each tested compound was evaluated by the change in the fluorescence intensity compared to control wells. […] To validate the primary screening results, each of the primary “hits” was re-tested, first at concentration of 20 micromolar in duplicates and later at a serial dilution ranging from 100 to 0.2 micromolar in triplicates.
Results of Assay—The results of the assay are given below in Tables 1-3.
Additional molecules were tested according to the methods and materials of Example 1. The amount tested was 20 uM for each molecule.

SIRT6, sequence (Q8N6T7 whole entry): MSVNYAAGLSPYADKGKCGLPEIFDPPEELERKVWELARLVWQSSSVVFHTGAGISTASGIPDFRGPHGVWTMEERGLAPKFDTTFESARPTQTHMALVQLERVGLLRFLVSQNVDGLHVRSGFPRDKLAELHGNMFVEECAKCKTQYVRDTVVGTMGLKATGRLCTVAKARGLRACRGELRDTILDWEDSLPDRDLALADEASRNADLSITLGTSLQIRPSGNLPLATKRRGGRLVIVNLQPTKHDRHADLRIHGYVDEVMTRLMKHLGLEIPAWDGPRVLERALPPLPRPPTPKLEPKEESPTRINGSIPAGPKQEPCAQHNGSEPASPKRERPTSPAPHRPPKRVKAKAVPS

Row | SMILES | % Activity [%]
1 | COc1ccc(C(=O)Oc2ccc3c(C)c(Cc4ccccc4)c(=O)oc3c2)cc1 [Y040-2026] | 140
2 | CCCCCCc1c(C)c2ccc(OC(C)=O)c(C)c2oc1=O [Y040-4544] | 33
3 | CCN1CCN(C(=O)C2CCN(c3nc4ccc(-c5ccccc5)nc4s3)CC2)CC1 [T387-0670] | 69
4 | Cc1cc(C)c2sc(N(CCCN(C)C)C(=O)CCS(=O)(=O)c3ccccc3)nc2c1 [E677-2413] | 115
5 | CCCc1ccc(-c2ccc(C(=O)Nc3nc4ccc(C)cc4s3)cc2)nc1 [0703-6407] | 40
6 | CN(C)C(=O)C1CCN(c2nc3ccc(-c4cncnc4)nc3s2)CC1 [T387-0950] | 80
7 | COc1ccc(C(=O)Oc2ccc3c4c(c(=O)oc3c2)CCCC4)cc1 [Y040-8182] | 485
8 | CCS(=O)(=O)c1nc2ccccc2n1CC(=O)Nc1ccccc1C(=O)OC [7398-1618] | 156
9 | CC(=O)Oc1ccc2c(C)c(Cc3ccccc3)c(=O)oc2c1C [2259-4062] | 137
10 | Cc1c(OC(=O)C2CCCCC2)ccc2c3c(c(=O)oc12)CCCC3 [Y040-0748] | 71
11 | CN(C)CCCNC(=O)C1CCN(c2nc3ccc(-c4ccccc4)nc3s2)CC1 [T387-0668] | 51
12 | Cc1c(Cc2ccccc2)c(=O)oc2c(C)c(OC(=O)C3CCCCC3)ccc12 [Y040-7709] | 145
13 | COc1ccc(C)c2sc(N(CCN(C)C)C(=O)CCS(=O)(=O)c3ccccc3)nc12 [E676-2540] | 59
14 | Cc1c(Cc2ccccc2)c(=O)oc2c(C)c(OC(=O)c3ccccc3)ccc12 [Y040-7711] | 41
15 | O=C(C1=CC=CC1)n1nc(-c2ccccc2)nc1NCc1ccco1 [6855-0211] | 77
16 | COc1ccc(CN2CCN(C(=O)c3ccc(N4CCc5ccccc54)s3)CC2)c(OC)c1OC [G122-1838] | 45
17 | COc1cc(C(=O)Oc2ccc3c4c(c(=O)oc3c2)CCC4)cc(OC)c1OC [2712-4061] | 52
18 | CCOc1ccccc1C(=O)Oc1ccc2c(C)c(CC(=O)OC)c(=O)oc2c1C [Y040-3573] | 50

Row | SMILES | % Activity [%]
19 | COc1ccc(C(=O)Oc2ccc3c4c(c(=O)oc3c2)CCC4)cc1 [2712-3502] | 264
20 | CNC(=O)N1CCc2c(sc3ncnc(NCCCOC)c23)C1 [S324-0365] | 60
21 | COC(=O)CSc1ccc(C#N)c(SCC(=O)OC)c1 [8012-3471] | 23
22 | Cc1cc(C)c2sc(N(Cc3cccnc3)C(=O)CCS(=O)(=O)c3ccccc3)nc2c1 [G856-7064] | 61
23 | CCCCCCc1c(C)c2cc3c(-c4ccc(F)cc4)coc3c(C)c2oc1=O [Y041-6500] | 21
24 | CCCCCCc1c(C)c2cc(C)c(OC(=O)c3cccc(OC)c3)cc2oc1=O [Y040-7591] | 63
25 | CCCCCCOc1ccc(C(=O)Nc2nc3ccc(OC)cc3s2)cc1 [0938-8060] | 47
26 | O=C(Oc1ccc2c3c(c(=O)oc2c1)CCC3)c1cccs1 [2712-4058] | 455
27 | Cc1c(Cc2ccccc2)c(=O)oc2cc(OCc3c(Cl)cccc3Cl)ccc12 [Y040-7747] | 21
28 | CCC(=O)Oc1ccc2c(C)c(Cc3ccccc3)c(=O)oc2c1C [2259-4063] | 273
29 | COCCCNC(=O)C1CCN(c2nc3ccc(-c4cncnc4)nc3s2)CC1 [T387-0917] | 65
30 | CC(=O)Oc1ccc(C(=O)Nc2nc3c(C)cc(C)cc3s2)cc1 [3659-2007] | 27
31 | Cc1nc2cc(-c3ccccc3)nn2c(C(C)(C)C)c1C [5197-0134] | 21
32 | CN(C)CCNC(=O)C1CCN(c2nc3ccc(-c4cccnc4)nc3s2)CC1 [T387-1019] | 31
33 | COc1ccc(C(=O)Oc2ccc3c4c(c(=O)oc3c2)CCC4)cc1OC [2712-4069] | 294
34 | CN1CCN(C(=O)C2CCN(c3nc4ccc(-c5ccccc5)nc4s3)CC2)CC1 [T387-0661] | 67
35 | CCCc1cc2c(=O)c(-c3ccc4c(c3)OCO4)coc2cc1OC(C)=O [2188-3841] | 21

same assay, conditions: compound 20 uM; percentage of signal increase relative to control wells; Tables 1-2

Row | SMILES | % activity 20 uM [%]
36 | CCC(=O)Nc1ccc(-c2cc(C(=O)NCCCN3CCCC(C)C3)c3ccccc3n2)cc1 (centres unmarked) [L036-0174] | 61
37 | C=C(Oc1ccc2cnccc2c1)c1sc2ccccc2c1N [G891-0058] | 154
38 | CCC(=O)Nc1ccc(-c2cc(C(=O)NCCCN3CCCCCC3)c3ccccc3n2)cc1 [L036-0162] | 62
39 | C=C(Cn1c(C)cc(C)c(C2=NC(c3ccccc3)=NC2)c1=O)NC1CCCCC1 [G744-0080] | 53
40 | CN(C)C(=O)c1ccc(-c2ccc(N3CCCCC3)nc2)cc1 [M715-0112] | 40
41 | CCOc1ccc(NC(=O)c2sc3nc(C)nc(N(C)c4ccc(C(C)C)cc4)c3c2C)cc1 [K937-0320] | 32
42 | Cc1nc(Cc2ccc(F)cc2)sc1C(=O)Nc1ccc(F)cc1F [M830-6517] | 36
43 | CCOCCCNc1nc2ccccc2nc1S(=O)(=O)Cc1ccc(Cl)cc1 [L103-0696] | 91

same assay, conditions: compound 100 uM; percentage of signal increase relative to control wells; Tables 1-2

Row | SMILES | % activity Max. conc. 100 uM [%]
44 | Cc1nc(-c2cccc(F)c2)c(N)c(N(C)C2CCN(C)CC2)n1 [V030-4128] | 210
45 | C=C1Cc2cc(C)cc(CC(=O)[C@@H](NS(=C)(=C)c3ccc(C)cc3)[C@H](C)CC)c2C2=C1CCC2 [Y040-3625] | 113
46 | Cc1nc2sc(-c3nc4ccccc4[nH]3)c(N)c2c(C)c1Cl [8012-5593] | 59
47 | C=C(OC(C)CC)C1=C(C)NC2=C(C(=C)C(C(=C)OC)C(C)C2)C1c1ccc(N(CC)CC)cc1 (centres unmarked) [C142-0098] | 61
48 | O=C(NCc1cccc(Cl)c1)c1noc2c1CSc1ccccc1-2 [E146-0990] | 137
49 | C=C(Cc1ccc2c(c1)C(C)=CC(C)(C)N2)Cc1cccc2ccccc12 [4477-0762] | 56
50 | CCC(=O)Nc1ccc(-c2cc(C(=O)NCCCN3CCCC(C)C3)c3ccccc3n2)cc1 (centres unmarked) [L036-0174] | 87
51 | O=C(Nc1ccc2nnc(C3CCC3)n2c1)C1CC1 [M723-1459] | 142
52 | C=C(Oc1ccc2cnccc2c1)c1sc2ccccc2c1N [G891-0058] | 324
53 | CCC(=O)Nc1ccc(-c2cc(C(=O)NCCCN3CCCCCC3)c3ccccc3n2)cc1 [L036-0162] | 92
54 | C=C(C)C1Cc2cc(C(F)(F)F)ccc2N2CCCCC12 (centres unmarked) [V004-5575] | 175
55 | Cc1noc(-c2cccc(OC3CN(C(=O)c4cccc5[nH]ccc45)C3)c2)n1 [S051-0094] | 47
56 | COc1ccc(-c2nn3c(C)nnc3s2)cc1N [8018-6508] | 18
57 | C=C(CN1C(=C)C(c2nc(-c3ccccc3)no2)=C(C)C=C1C)NCCc1ccc(CC)c(CC)c1 [G744-0071] | 73
58 | CC[C@H]1O[C@@H](Cc2ccc3c(c2C)CC(=O)C(C)=C3C)[C@H](C)[C@@H](O)[C@H]1C [D715-0292] | 56
59 | COc1ccc(-c2csc3c(NN)ncnc23)cc1 [C201-1744] | 22

Row | SMILES | % activity Max. conc. 100 uM [%]
60 | C=C(Cn1c(C)cc(C)c(C2=NC(c3ccccc3)=NC2)c1=O)NC1CCCCC1 [G744-0080] | 221
61 | CN(C)C(=O)c1ccc(-c2ccc(N3CCCCC3)nc2)cc1 [M715-0112] | 54
62 | CCOc1ccc(NC(=O)c2sc3nc(C)nc(N(C)c4ccc(C(C)C)cc4)c3c2C)cc1 [K937-0320] | 54
63 | CCN1CCCC1CNC(=O)C1CCN(c2cc(C)nc3c(-c4ccc(Cl)cc4)c(C)nn23)CC1 (centres unmarked) [C535-0969] | 29
64 | CCC(=O)Nc1ccc(-c2cc(C(=O)NCCCN3CCCCC3C)c3ccccc3n2)cc1 (centres unmarked) [L036-0163] | 110
65 | Cc1ccc(NC(=O)c2nnc(-c3ccc(NC(=O)c4cccs4)cc3)s2)cc1 [F498-0132] | 16
66 | CC(C)(C)c1ccc(C(=O)Nc2ccc3nnc(C4CCC4)n3c2)cc1 [M723-1403] | 87
67 | Cc1nc(Cc2ccc(F)cc2)sc1C(=O)Nc1ccc(F)cc1F [M830-6517] | 22
68 | Cc1nc(-c2cccc(C(F)(F)F)c2)c(N)c(N(C)C2CCN(C)CC2)n1 [V030-4109] | 255
69 | COc1cc(NC(=O)c2csc(-c3cn(C)c4ncccc34)n2)cc(OC)c1 [P613-0273] | 37
70 | CCOCCCNc1nc2ccccc2nc1S(=O)(=O)Cc1ccc(Cl)cc1 [L103-0696] | 159
71 | CC1=CC(C)(C)Nc2ccc(OC(=O)c3cccs3)cc21 [4477-2607] | 54
72 | N#Cc1c(N)oc(C2=CC=CC2)c1-c1ccco1 [8014-9229] | 48
73 | C=C1Cc2ccc(C)cc2C2=C1C(c1ccc(F)cc1)=C(NCCOC)C2 [F025-0094] | 246
74 | C=C(CN1c2ccccc2C(C)(C)C12C=Cc1c(ccc3ccccc13)C2)NC (centres unmarked) [8008-8279] | 27
